Reference: patent US7851474B2, “Dipiperazinyl ketones and related analogues” (Neurogen Corporation, priority 2005, dated 2010)
pKi: −log10 of the molar value.

The compounds below were run against T1, chimeric human H3 receptor (Homo sapiens, UniProt Q9Y5N1, E19D) (assay: Chimeric human H3 receptor GTP binding assay (agonist-stimulated GTP-gamma35S binding, Example 7)). Settings: not given.
T1 construct: made in house; host or cells: Sf9 insect cells (baculovirus infection); P2 membrane preparation
T1 sequence (Q9Y5N1 with tags, fused parts or gaps E19D): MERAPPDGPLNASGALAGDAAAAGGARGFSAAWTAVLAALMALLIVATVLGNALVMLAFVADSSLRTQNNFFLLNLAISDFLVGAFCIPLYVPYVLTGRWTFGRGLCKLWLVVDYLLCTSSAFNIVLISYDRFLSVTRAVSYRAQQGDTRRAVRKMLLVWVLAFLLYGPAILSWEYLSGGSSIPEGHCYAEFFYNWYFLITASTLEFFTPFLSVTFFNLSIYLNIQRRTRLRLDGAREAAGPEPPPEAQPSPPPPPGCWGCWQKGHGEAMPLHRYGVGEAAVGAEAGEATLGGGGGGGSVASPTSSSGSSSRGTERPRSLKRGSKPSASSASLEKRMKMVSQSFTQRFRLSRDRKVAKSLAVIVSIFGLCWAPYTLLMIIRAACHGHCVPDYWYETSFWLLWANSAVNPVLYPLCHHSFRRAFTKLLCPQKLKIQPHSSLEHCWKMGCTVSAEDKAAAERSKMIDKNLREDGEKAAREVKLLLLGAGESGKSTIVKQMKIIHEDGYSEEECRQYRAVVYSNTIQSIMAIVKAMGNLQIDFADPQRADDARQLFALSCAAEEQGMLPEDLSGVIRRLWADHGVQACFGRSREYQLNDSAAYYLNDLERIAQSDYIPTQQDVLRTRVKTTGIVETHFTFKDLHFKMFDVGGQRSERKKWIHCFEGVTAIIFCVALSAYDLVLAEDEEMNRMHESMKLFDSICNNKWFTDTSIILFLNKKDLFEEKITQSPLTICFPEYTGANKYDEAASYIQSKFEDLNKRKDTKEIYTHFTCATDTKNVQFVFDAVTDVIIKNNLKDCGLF
Type: biochemical
Procedure, shortened: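 Sf9 membranes co-expressing the chimeric receptor and heterotrimeric G-protein subunits, 35 μg protein per tube, in pH 7.4 Tris buffer with 10 μM GDP. Test compounds at 10^−10 to 10^−6 M with 1 μM histamine, 60 min at room temperature. Filter-bound GTP-gamma^35S read by scintillation; IC50 from non-linear regression of dose-response curves.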
Compound `CC(=O)C1(c2ccccc2)CCN(CC(=O)N2CCN(C3CCC3)CC2)CC1` [Compound 478, 1-{1-[2-(4-cyclobutylpiperazin-1-yl)-2-oxoethyl]-4-phenylpiperidin-4-yl}ethanone] has a pKi greater than 6.00. Work on `C=CCN1CCN(C(=O)CN2CCN(c3ccc(C(F)(F)F)cc3)CC2)CC1` [Compound 487, 1-allyl-4-({4-[4-(trifluoromethyl)phenyl]piperazin-1-yl}acetyl)piperazine] yielded a pKi greater than 6.00. `CCCCN1CCN(C(=O)CN2CCN(c3ccc(C(F)(F)F)cc3)CC2)CC1` [Compound 496, 1-butyl-4-({4-[4-(trifluoromethyl)phenyl]piperazin-1-yl}acetyl)piperazine] gave a pKi greater than 6.00.

Same assay, conditions: "*" in Ki of Table II; assay of Example 7; read-out: Ki
Work on `O=C(CN1CCN(c2ccc(-c3ccc(Cl)c(C(F)(F)F)c3)cc2)CC1)N1CCN(C2CCC2)CC1` [Compound 463, 1-[4′-chloro-3′-(trifluoromethyl)biphenyl-4-yl]-4-[2-(4-cyclobutylpiperazin-1-yl)-2-oxoethyl]piperazine] yielded a pKi greater than 6.00. `O=C(CN1CCN(c2ccc(Cl)c(C(F)(F)F)c2)CC1)N1CCN(C2CCC2)CC1` [Compound 464, 1-[4-chloro-3-(trifluoromethyl)phenyl]-4-[2-(4-cyclobutylpiperazin-1-yl)-2-oxoethyl]piperazine] showed a pKi greater than 6.00. `O=C(CN1CCN(c2ccc(Cl)c(C(F)(F)F)c2)CC1)N1CCN(C2CCCC2)CC1` [Compound 466, 1-[4-chloro-3-(trifluoromethyl)phenyl]-4-[2-(4-cyclopentylpiperazin-1-yl)-2-oxoethyl]piperazine] was tested, and the pKi was greater than 6.00. Work on `CC(C)N1CCN(C(=O)CN2CCN(c3ccc(Cl)c(C(F)(F)F)c3)CC2)CC1` [Compound 467, 1-[4-chloro-3-(trifluoromethyl)phenyl]-4-[2-(4-isopropylpiperazin-1-yl)-2-oxoethyl]piperazine] yielded a pKi greater than 6.00. `CC(C)N1CCN(C(=O)CN2CCN(c3ccc(F)c(C(F)(F)F)c3)CC2)CC1` [Compound 468, 1-[4-fluoro-3-(trifluoromethyl)phenyl]-4-[2-(4-isopropylpiperazin-1-yl)-2-oxoethyl]piperazine] gave a pKi greater than 6.00. Compound `O=C(CN1CCC(N2CCCCCC2)CC1)N1CCN(C2CCC2)CC1` [Compound 479, 1-{1-[2-(4-cyclobutylpiperazin-1-yl)-2-oxoethyl]piperidin-4-yl}azepane] has a pKi greater than 6.00. `O=C(CN1CCC(N2CCCCCC2)CC1)N1CCN(C2CCCCC2)CC1` [Compound 480, 1-{1-[2-(4-cyclohexylpiperazin-1-yl)-2-oxoethyl]piperidin-4-yl}azepane] showed a pKi greater than 6.00. `CCC(C)N1CCN(C(=O)CN2CCC(N3CCCCCC3)CC2)CC1` (centres unmarked) [Compound 481, 1-{1-[2-(4-sec-butylpiperazin-1-yl)-2-oxoethyl]piperidin-4-yl}azepane] showed a pKi greater than 6.00. With `CC(=O)N1CCN(CC(=O)N2CCN(C3CCC3)CC2)CC1` [Compound 483, 1-acetyl-4-[2-(4-cyclobutylpiperazin-1-yl)-2-oxoethyl]piperazine] the pKi was greater than 6.00. With `CC(=O)N1CCN(CC(=O)N2CCN(C3CCCCC3)CC2)CC1` [Compound 484, 1-acetyl-4-[2-(4-cyclohexylpiperazin-1-yl)-2-oxoethyl]piperazine] the pKi was greater than 6.00. `CC(=O)N1CCN(CC(=O)N2CCN(C3CCCC3)CC2)CC1` [Compound 485, 1-acetyl-4-[2-(4-cyclopentylpiperazin-1-yl)-2-oxoethyl]piperazine] showed a pKi greater than 6.00. `O=C(N1CCN(C2CCC2)CC1)N1CCC2(CC1)C(=O)N(Cc1ccccc1)c1ccccc12` [Compound 488, 1-benzyl-1′-[(4-cyclobutylpiperazin-1-yl)carbonyl]spiro[indole-3,4′-piperidin]-2(1H)-one] showed a pKi greater than 6.00. For `O=C(N1CCN(C2CCCC2)CC1)N1CCC2(CC1)C(=O)N(Cc1ccccc1)c1ccccc12` [Compound 489, 1-benzyl-1′-[(4-cyclopentylpiperazin-1-yl)carbonyl]spiro[indole-3,4′-piperidin]-2(1H)-one], the pKi was greater than 6.00. Work on `O=C(CN1CCC2(CC1)CN(Cc1ccccc1)c1cccnc12)N1CCN(C2CCC2)CC1` [Compound 490, 1′-benzyl-1-[2-(4-cyclobutylpiperazin-1-yl)-2-oxoethyl]-1′,2′-dihydrospiro[piperidine-4,3′-pyrrolo[3,2-b]pyridine]] yielded a pKi greater than 6.00. With `O=C(CN1CCC2(CC1)C(=O)N(Cc1ccccc1)c1cccnc12)N1CCN(C2CCC2)CC1` [Compound 492, 1′-benzyl-1-[2-(4-cyclobutylpiperazin-1-yl)-2-oxoethyl]spiro[piperidine-4,3′-pyrrolo[3,2-b]pyridin]-2′(1′H)-one] the pKi was greater than 6.00. For `O=C(CN1CCN(c2cccc(-c3ccccc3)c2)CC1)N1CCN(C2CCC2)CC1` [Compound 493, 1-biphenyl-3-yl-4-[2-(4-cyclobutylpiperazin-1-yl)-2-oxoethyl]piperazine], the pKi was greater than 6.00. Work on `O=C(CN1CCN(c2ccc(-c3ccccc3)cc2)CC1)N1CCN(C2CCC2)CC1` [Compound 494, 1-biphenyl-4-yl-4-[2-(4-cyclobutylpiperazin-1-yl)-2-oxoethyl]piperazine] yielded a pKi greater than 6.00. In the case of `O=C(Cc1c(Cl)ccc(Cl)c1Cl)N1CCN(CC(=O)N2CCN(C3CCC3)CC2)CC1` [Compound 501, 1-cyclobutyl-4-({4-[(2,3,6-trichlorophenyl)acetyl]piperazin-1-yl}acetyl)piperazine], the pKi was greater than 6.00. `COc1ccc(CC(=O)N2CCN(CC(=O)N3CCN(C4CCC4)CC3)CC2)c(OC)c1` [Compound 507, 1-cyclobutyl-4-({4-[(2,4-dimethoxyphenyl)acetyl]piperazin-1-yl}acetyl)piperazine] gave a pKi greater than 6.00. For `COc1ccc(OC)c(CC(=O)N2CCN(CC(=O)N3CCN(C4CCC4)CC3)CC2)c1` [Compound 509, 1-cyclobutyl-4-({4-[(2,5-dimethoxyphenyl)acetyl]piperazin-1-yl}acetyl)piperazine], the pKi was greater than 6.00. `O=C(Cc1c(Cl)cccc1Cl)N1CCN(CC(=O)N2CCN(C3CCC3)CC2)CC1` [Compound 511, 1-cyclobutyl-4-({4-[(2,6-dichlorophenyl)acetyl]piperazin-1-yl}acetyl)piperazine] was tested, and the pKi was greater than 6.00. Work on `COc1ccccc1CC(=O)N1CCN(CC(=O)N2CCN(C3CCC3)CC2)CC1` [Compound 536, 1-cyclobutyl-4-({4-[(2-methoxyphenyl)acetyl]piperazin-1-yl}acetyl)piperazine] yielded a pKi greater than 6.00. `O=C(Cc1ccccc1Oc1ccccc1)N1CCN(CC(=O)N2CCN(C3CCC3)CC2)CC1` [Compound 541, 1-cyclobutyl-4-({4-[(2-phenoxyphenyl)acetyl]piperazin-1-yl}acetyl)piperazine] was tested, and the pKi was greater than 6.00. With `Cc1cccc(OC(C)C(=O)N2CCN(CC(=O)N3CCN(C4CCC4)CC3)CC2)c1C` (centres unmarked) [Compound 571, 1-cyclobutyl-4-({4-[2-(2,3-dimethylphenoxy)propanoyl]piperazin-1-yl}acetyl)piperazine] the pKi was greater than 6.00. `Cc1ccccc1OC(C)C(=O)N1CCN(CC(=O)N2CCN(C3CCC3)CC2)CC1` (centres unmarked) [Compound 573, 1-cyclobutyl-4-({4-[2-(2-methylphenoxy)propanoyl]piperazin-1-yl}acetyl)piperazine] showed a pKi greater than 6.00.

Same assay, conditions: Table II, "*" in Ki; assay of Example 7; read-out: Ki
With `O=C(CN1CCN(c2ccc(-c3ccccc3C(F)(F)F)cc2)CC1)N1CCN(C2CCC2)CC1` [Compound 580, 1-cyclobutyl-4-({4-[2′-(trifluoromethyl)biphenyl-4-yl]piperazin-1-yl}acetyl)piperazine] the pKi was greater than 6.00.
